Measured values as given in patent publication US11629154B2, “Tetrahydropyranooxazine derivatives having selective BACE1 inhibitory activity” (SHIONOGI & CO., LTD., priority 2018, dated 2023).

Experiments:
[1] = target: recombinant BACE1 protein (Homo sapiens (Human), UniProt P56817); assay: BACE1 biochemical FRET based assay; conditions: for Selectivity: BACE1 versus BACE2; for IC50: FRET, pH 5.0
Text: (1) BACE1 Biochemical FRET Based Assay
(§1) This assay is a Fluorescence Resonance Energy Transfer Assay (FRET) based assay. The substrate for this assay is an APP derived 13 amino acids peptide that contains the ‘Swedish’ Lys-Met/Asn-Leu mutation of the amyloid precursor protein (APP) beta-site secretase cleavage site. This substrate also contains two fluorophores: (7-methoxycoumarin-4-yl) acetic acid (Mca) is a fluorescent donor with excitation wavelength at 320 nm and emission at 405 nm and 2,4-dinitrophenol (Dnp) is a proprietary quencher acceptor. […] Upon cleavage by BACE1, the fluorophore Mca is separated from the quenching group Dnp, restoring the full fluorescence yield of the donor. The increase in fluorescence is linearly related to the rate of proteolysis.
Briefly in a 384-well format recombinant BACE1 protein in a final concentration of 0.04 μg/mL was incubated for 450 minutes at room temperature with […] substrate in incubation buffer (final concentrations: 33.3 mM Citrate buffer pH 5.0, 0.033% PEG, 3% DMSO) in the absence or presence of compound. Next the amount of proteolysis was directly measured by fluorescence measurement at T=0′-120′ and T=450′ (excitation at 320 nm and emission at 405 nm). Results were expressed in RFU (Relative Fluorescence Units), as difference between T450 and Tx (Tx is chosen depending on the reaction speed between 0 and 120 minutes).
(§2) A best-fit curve was fitted by a minimum sum of squares method to the plot of % Controlmin versus compound concentration. From this an IC50 value (inhibitory concentration causing 50% inhibition of activity) can be obtained.
(§3) LC=Median of the low control values
(§4) =Low control: Reaction without enzyme
(§5) HC=Median of the High control values
=High Control: Reaction with enzyme % Effect=100−[(sample−LC)/(HC−LC)*100] % Control=(sample/HC)*100 % Controlmin=(sample−LC)/(HC−LC)*100

[2] = target: recombinant BACE2 protein (Homo sapiens (Human), UniProt Q9Y5Z0); assay: BACE2 biochemical FRET based assay; conditions: pH 5.0
Chain of recombinant BACE2 protein (Q9Y5Z0 63-518): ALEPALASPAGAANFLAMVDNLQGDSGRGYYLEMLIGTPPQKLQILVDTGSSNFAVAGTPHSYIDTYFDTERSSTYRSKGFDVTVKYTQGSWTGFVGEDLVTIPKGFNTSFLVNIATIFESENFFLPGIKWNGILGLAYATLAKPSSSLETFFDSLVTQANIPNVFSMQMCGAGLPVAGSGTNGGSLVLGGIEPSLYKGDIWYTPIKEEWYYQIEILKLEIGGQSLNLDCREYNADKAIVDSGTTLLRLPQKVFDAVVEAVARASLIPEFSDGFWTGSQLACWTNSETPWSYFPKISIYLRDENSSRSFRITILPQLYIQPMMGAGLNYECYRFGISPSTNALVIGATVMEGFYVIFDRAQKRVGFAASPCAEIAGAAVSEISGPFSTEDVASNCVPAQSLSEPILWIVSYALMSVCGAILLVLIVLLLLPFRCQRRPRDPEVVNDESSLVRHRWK
Text: (2) BACE2 Biochemical FRET Based Assay
as §1, with “assay” for “assay is an APP derived 13 amino acids peptide that”, “beta-secretase” for “beta-site secretase”, “the beta-secretase,” for “BACE1,”
Briefly in a 384-well format recombinant BACE2 protein in a final concentration of 0.4 μg/mL was incubated for 450 minutes at room temperature with 10 μM substrate in incubation buffer (final concentrations: 33.3 mM Citrate buffer pH 5.0, 0.033% PEG, 2% DMSO) in the absence or presence of compound. Next the amount of proteolysis was directly measured by fluorescence measurement at T=0 and T=450 (excitation at 320 nm and emission at 405 nm). Results were expressed in RFU (Relative Fluorescence Units), as difference between T450 and TO.
as §2, §3, §4, §5

Chain of recombinant BACE1 protein (P56817 46-501): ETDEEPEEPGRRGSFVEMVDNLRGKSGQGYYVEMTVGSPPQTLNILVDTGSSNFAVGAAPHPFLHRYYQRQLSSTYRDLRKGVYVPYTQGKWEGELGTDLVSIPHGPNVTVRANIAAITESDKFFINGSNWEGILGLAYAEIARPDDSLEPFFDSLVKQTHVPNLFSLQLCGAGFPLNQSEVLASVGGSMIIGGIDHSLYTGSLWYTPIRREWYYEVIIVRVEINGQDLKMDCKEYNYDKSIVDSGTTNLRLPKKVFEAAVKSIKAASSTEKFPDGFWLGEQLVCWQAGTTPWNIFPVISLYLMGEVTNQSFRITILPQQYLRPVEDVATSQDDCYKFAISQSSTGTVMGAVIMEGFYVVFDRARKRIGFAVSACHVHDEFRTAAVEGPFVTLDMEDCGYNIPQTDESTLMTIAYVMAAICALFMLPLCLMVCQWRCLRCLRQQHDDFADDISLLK

SMILES | Selectivity [1] | IC50 [1] [µM] | IC50 [2] [µM]
C[C@@H]1OCC[C@H]2OC(N)=N[C@](CF)(c3cc(NC(=O)c4cnc(OCF)cn4)ccc3F)[C@@H]12 [Compound I-011] | 31.6 | 0.0132 | 0.417
NC1=N[C@](CF)(c2cc(NC(=O)c3cnc(OCC4(F)CC4)cn3)ccc2F)[C@H]2COCC[C@H]2O1 [Compound I-086] | 53.7 | 0.01 | 0.537
C[C@@H]1C[C@H]2OC(N)=N[C@](CF)(c3cc(NC(=O)c4cnc(OC(F)F)cn4)ccc3F)[C@H]2CO1 [Compound I-089] | 56.2 | 0.0098 | 0.55
CC[C@@H]1OCC[C@H]2OC(N)=N[C@](CF)(c3cc(NC(=O)c4cnc(OCF)cn4)ccc3F)[C@@H]12 [Compound I-009] | 44.7 | 0.0155 | 0.692
NC1=N[C@](CF)(c2cc(NC(=O)c3cnc(C(F)F)cn3)ccc2F)[C@H]2COCC[C@H]2O1 [Compound I-103] | 14.5 | 0.0219 | 0.316
C[C@@H]1C[C@H]2OC(N)=N[C@](CF)(c3cc(NC(=O)c4cnc(C(F)F)cn4)ccc3F)[C@H]2CO1 [Compound I-088] | 11.2 | 0.055 | 0.617
NC1=N[C@](CF)(c2cc(NC(=O)c3cnc(OCC(F)(F)F)cn3)ccc2F)[C@H]2COCC[C@H]2O1 [Compound I-077] | 223 | 0.0081 | 1.82
C[C@@H]1C[C@H]2OC(N)=N[C@](CF)(c3cc(NC(=O)c4ccc(C(F)(F)F)cn4)ccc3F)[C@H]2CO1 [Compound I-099] | 28.8 | 0.0191 | 0.55
CC[C@@H]1OCC[C@H]2OC(N)=N[C@](CF)(c3cc(NC(=O)c4cnc(OC(F)F)cn4)ccc3F)[C@@H]12 [Compound I-094] | 70.8 | 0.0059 | 0.417
C[C@H]1COC[C@H]2[C@@H]1OC(N)=N[C@]2(CF)c1cc(NC(=O)c2cnc(OCF)cn2)ccc1F [Compound I-074] | 36.3 | 0.0043 | 0.155
NC1=N[C@](CF)(c2cc(NC(=O)c3cnc(OCF)cn3)ccc2F)[C@H]2[C@H](CF)OCC[C@H]2O1 [Compound I-010] | 42.7 | 0.0107 | 0.457
C[C@@H]1C[C@H]2OC(N)=N[C@](CF)(c3cc(NC(=O)c4ncc(C(F)(F)F)cc4Cl)ccc3F)[C@H]2CO1 [Compound I-101] | 14.1 | 0.0282 | 0.398
NC1=N[C@](CF)(c2cc(NC(=O)c3cnc(C(F)(F)F)cn3)ccc2F)[C@H]2COCC[C@H]2O1 [Compound I-102] | 28.8 | 0.0339 | 0.977
NC1=N[C@](CF)(c2cc(NC(=O)c3cnc(OCF)cn3)ccc2F)[C@H]2COC3(CC3)C[C@H]2O1 [II-1] | 44.7 | 0.0219 | 0.977
NC1=N[C@](CF)(c2cc(NC(=O)c3cnc(OCC(F)F)cn3)ccc2F)[C@H]2COCC[C@H]2O1 [Compound I-079] | 52.7 | 0.0186 | 1
NC1=N[C@](CF)(c2cc(NC(=O)c3ccc(OC(F)F)cn3)ccc2F)[C@H]2COCC[C@H]2O1 [Compound I-078] | 25.1 | 0.0098 | 0.245
Cc1cc(C(F)(F)F)cnc1C(=O)Nc1ccc(F)c([C@@]2(CF)N=C(N)O[C@@H]3CCOC[C@@H]32)c1 [Compound I-106] | 10.2 | 0.0142 | 0.148
Cc1cc(C(F)(F)F)cnc1C(=O)Nc1ccc(F)c([C@@]2(CF)N=C(N)O[C@@H]3C[C@@H](C)OC[C@@H]32)c1 [Compound I-100] | 15.5 | 0.0166 | 0.257
COc1cnc(C(=O)Nc2ccc(Cl)c([C@@]3(CF)N=C(N)O[C@@H]4C[C@@H](C)OC[C@@H]43)c2)cn1 [Compound I-068] | 24.5 | 0.0112 | 0.275
COc1cnc(C(=O)Nc2ccc(F)c([C@@]3(CF)N=C(N)O[C@@H]4C[C@@H](C)OC[C@@H]43)c2)cn1 [Compound I-069] | 123 | 0.0117 | 1.45
CCOc1cnc(C(=O)Nc2ccc(F)c([C@@]3(CF)N=C(N)O[C@@H]4CCOC[C@@H]43)c2)cn1 [Compound I-109] | 18.6 | 0.0224 | 0.417
NC1=N[C@](CF)(c2cc(NC(=O)c3ncc(C(F)(F)F)cc3Cl)ccc2F)[C@H]2COCC[C@H]2O1 [Compound I-108] | 10.0 | 0.02 | 0.2
C[C@@H]1COC[C@H]2[C@@H]1OC(N)=N[C@]2(CF)c1cc(NC(=O)c2cnc(OCF)cn2)ccc1F [Compound I-075] | 27.5 | 0.026 | 0.724
[2H]C([2H])([2H])Oc1cnc(C(=O)Nc2ccc(F)c([C@@]3(CF)N=C(N)O[C@@H]4CCOC[C@@H]43)c2)cn1 [Compound I-104] | 27.5 | 0.0145 | 0.398
NC1=N[C@](CF)(c2cc(NC(=O)c3cnc(C(F)(F)F)cn3)ccc2F)[C@H]2COCC[C@H]2O1 [Compound I-107] | 63.1 | 0.0537 | 3.39
C[C@@H]1C[C@H]2OC(N)=N[C@](CF)(c3cc(NC(=O)c4cnc(OCF)cn4)cc(F)c3F)[C@H]2CO1 [Compound I-061] | 53.7 | 0.0174 | 0.933
